Results published in ChEMBL document CHEMBL5500346, “Targeting EGFR degradation by autophagosome degraders” (Eur J Med Chem, 2024).
pIC50, pKd: −log10 of the molar value. Calls of active or inactive are those of the source. Unless noted, no cut-off for these calls is given here.

What was measured:
A549 = test: Antiproliferative activity against human A549 cells incubated for 72 hrs by CCK8 assay; assay type: functional, cell-based; details: A549, 72 h
HCC827 [1] = test: Antiproliferative activity against human HCC827 cells incubated for 72 hrs by CCK8 assay; assay type: functional, cell-based; details: HCC827, 72 h
NCI-H1975 = test: Antiproliferative activity against human NCI-H1975 cells incubated for 72 hrs by CCK8 assay; assay type: functional, cell-based; details: NCI-H1975, 72 h
L02 = test: Antiproliferative activity against human HL7702 cells incubated for 72 hrs by CCK8 assay; assay type: toxicity, cell-based; details: l02, 72 h
[2] = biological target: T1, Microtubule-associated protein 1 light chain 3 beta/Epidermal growth factor receptor (Homo sapiens, UniProt P00533+Q9GZQ8); test: ATTEC activity at LC3B/EGFR in human A549 cells assessed as protein degradation; assay type: cell-based
[3] = biological target: T1, Microtubule-associated protein 1 light chain 3 beta/Epidermal growth factor receptor; test: ATTEC activity at LC3B/EGFR in human NCI-H1975 cells assessed as protein degradation; assay type: cell-based
[4] = biological target: T1, Microtubule-associated protein 1 light chain 3 beta/Epidermal growth factor receptor; test: ATTEC activity at LC3B/EGFR in human PC-9 cells assessed as protein degradation; assay type: cell-based
[5] = biological target: T1, Microtubule-associated protein 1 light chain 3 beta/Epidermal growth factor receptor; test: ATTEC activity at LC3B/EGFR in human NCI-H3255 cells assessed as protein degradation; assay type: cell-based
[6] = biological target: T1, Microtubule-associated protein 1 light chain 3 beta/Epidermal growth factor receptor; test: ATTEC activity at LC3B/EGFR in human HCC827 cells assessed as protein degradation; assay type: cell-based
[7] = biological target: T1, Microtubule-associated protein 1 light chain 3 beta/Epidermal growth factor receptor; test: ATTEC activity at LC3B/EGFR in Gefitinib-resistant human PC-9 cells assessed as protein degradation; assay type: cell-based
[8] = biological target: T1, Microtubule-associated protein 1 light chain 3 beta/Epidermal growth factor receptor; test: ATTEC activity at LC3B/EGFR in human HCC827 cells assessed as protein degradation at 1 uM measured after 48 hrs by Western blot analysis; assay type: cell-based
[9] = biological target: T1, Microtubule-associated protein 1 light chain 3 beta/Epidermal growth factor receptor; test: ATTEC activity at LC3B/EGFR in MG132-treated human HCC827 cells assessed as protein degradation at 1 uM incubated for 12 hrs by Western blot analysis; assay type: cell-based
[10] = biological target: T1, Microtubule-associated protein 1 light chain 3 beta/Epidermal growth factor receptor; test: ATTEC activity at LC3B/EGFR in rapamycin-treated human HCC827 cells assessed as protein degradation by Western blot analysis; assay type: cell-based
[11] = biological target: T1, Microtubule-associated protein 1 light chain 3 beta/Epidermal growth factor receptor; test: ATTEC activity at LC3B/EGFR in human HCC827 cells assessed as protein degradation at 1 uM incubated for 18 hrs by global proteomic profiling analysis; assay type: cell-based
[12] = biological target: T1, Microtubule-associated protein 1 light chain 3 beta/Epidermal growth factor receptor; test: Binding affinity to biotinylated LC3B/EGFR in human HCC827 cells assessed as dissociation constant BLI assay; assay type: cell-based
PC-9 [13] = test: Inhibition of colony formation in human PC-9 cells incubated for 2 weeks by crystal violet staining based analysis; assay type: functional, cell-based; details: dose 0.1-10 µM
HCC827 [14] = test: Inhibition of colony formation in human HCC827 cells incubated for 2 weeks by crystal violet staining based analysis; assay type: functional, cell-based; details: dose 0.1-10 µM
[15] = Stability in mouse plasma at 1 mg/ml incubated for 160 mins by HPLC analysis; assay type: ADME, cell-free; details: read-out: Stability
[16] = Half life in Sprague-Dawley rat at 20 mg/kg, ip; assay type: ADME, organism-based; details: in vivo
[17] = Toxicity in NOD-SCID mouse bearing human PC-9 cells assessed as body weight loss at 5 to 20 mg/kg, ip administered every other day for 3 weeks; assay type: organism-based; details: in vivo, 504 h, dose 5-20 mg/kg
PC-9 [18] = test: Anti-tumor activity against human PC-9 cells implanted in NOD-SCID mouse at 20 mg/kg, ip administered every other day for 3 weeks relative to control; assay type: functional; details: PC-9, 504 h, read-out: TGI
PC-9 [19] = test: In vivo ATTEC activity at LC3B/EGFR in human PC-9 cells implanted in NOD-SCID mouse assessed as protein degradation at 10 mg/kg, ip administered every other day for 3 weeks by Western blot analysis; assay type: functional, organism-based
[20] = Toxicity in C57BL/6 mouse assessed as body weight loss upto 200 mg/kg, ip measured after 24 hrs; assay type: organism-based; details: in vivo
[21] = Toxicity in C57BL/6 mouse assessed as lethargy upto 200 mg/kg, ip measured after 24 hrs; assay type: organism-based; details: in vivo
[22] = Toxicity in C57BL/6 mouse assessed as tremor upto 200 mg/kg, ip measured after 24 hrs; assay type: organism-based; details: in vivo
[23] = Toxicity in C57BL/6 mouse assessed as ataxia upto 200 mg/kg, ip measured after 24 hrs; assay type: organism-based; details: in vivo
[24] = Toxicity in C57BL/6 mouse assessed as dyspnea upto 200 mg/kg, ip measured after 24 hrs; assay type: organism-based; details: in vivo
[25] = Toxicity in C57BL/6 mouse assessed as histological change in heart upto 200 mg/kg, ip measured after 24 hrs by H and E staining based analysis; assay type: organism-based; details: in vivo
[26] = Toxicity in C57BL/6 mouse assessed as histological change in liver upto 200 mg/kg, ip measured after 24 hrs by H and E staining based analysis; assay type: organism-based; details: in vivo
[27] = Toxicity in C57BL/6 mouse assessed as histological change in kidney upto 200 mg/kg, ip measured after 24 hrs by H and E staining based analysis; assay type: organism-based; details: in vivo
[28] = Toxicity in C57BL/6 mouse assessed as serum GGT level at 100 mg/kg, ip measured after 24 hrs (reference value: 1.62 U/L); assay type: organism-based; details: in vivo
[29] = Toxicity in C57BL/6 mouse assessed as serum TBIL level at 100 mg/kg, ip measured after 24 hrs (reference value: 18.958 umol/L); assay type: organism-based; details: in vivo
[30] = Toxicity in C57BL/6 mouse assessed as serum DBIL level at 100 mg/kg, ip measured after 24 hrs (reference value: 7.868 umol/L); assay type: organism-based; details: in vivo
[31] = Toxicity in C57BL/6 mouse assessed as serum ALP level at 100 mg/kg, ip measured after 24 hrs (reference value: 250.654 U/L); assay type: organism-based; details: in vivo
[32] = Toxicity in C57BL/6 mouse assessed as serum TBA level at 100 mg/kg, ip measured after 24 hrs (reference value: 2.674 umol/L); assay type: organism-based; details: in vivo
[33] = Toxicity in C57BL/6 mouse assessed as serum urea level at 100 mg/kg, ip measured after 24 hrs (reference value: 18.934 mmol/L); assay type: organism-based; details: in vivo
[34] = Toxicity in C57BL/6 mouse assessed as serum uric acid level at 100 mg/kg, ip measured after 24 hrs (reference value: 78.784 umol/L); assay type: organism-based; details: in vivo
[35] = Toxicity in C57BL/6 mouse assessed as serum ALT level at 200 mg/kg, ip measured after 24 hrs (reference value: 42.554 U/L); assay type: organism-based; details: in vivo
[36] = Toxicity in C57BL/6 mouse assessed as serum AST level at 200 mg/kg, ip measured after 24 hrs (reference value: 234.682 U/L); assay type: organism-based; details: in vivo
[37] = Toxicity in C57BL/6 mouse assessed as serum TBIL level at 200 mg/kg, ip measured after 24 hrs (reference value: 18.958 umol/L); assay type: organism-based; details: in vivo
[38] = Toxicity in C57BL/6 mouse assessed as serum TBA level at 200 mg/kg, ip measured after 24 hrs (reference value: 2.674 umol/L); assay type: organism-based; details: in vivo
[39] = Toxicity in C57BL/6 mouse assessed as serum creatinine level at 200 mg/kg, ip measured after 24 hrs (reference value: 32.258 umol/L); assay type: organism-based; details: in vivo
[40] = Toxicity in C57BL/6 mouse assessed as change in hematological indicators upto 200 mg/kg, ip measured after 24 hrs by blood cell analysis; assay type: organism-based; details: in vivo

COc1cc2ncnc(Nc3ccc(F)c(Cl)c3)c2cc1OCCOCCOCCOCCNC(=O)COc1c(Br)cc(/C=C2\C(=O)Nc3ccc(I)cc32)cc1Br
pIC50 (A549): < 5.00
pIC50 (HCC827 [1]): 6.56
pIC50 (NCI-H1975): < 5.00
Activity (L02): Non-Toxic
Activity [2]: inactive
Activity [3]: inactive
Activity [4]: Active
Activity [5]: Active
Activity [6]: Active
Activity [7]: inactive
Activity [8]: Active
Activity [9]: Active
Activity [10]: Active
Activity [11]: Active
pKd [12]: 6.15
inhibition (PC-9 [13]): Dose-Dependent Effect
inhibition (HCC827 [14]): Dose-Dependent Effect
remaining at 2.667 h, 1 mg/ml [15]: 90%
half-life [16]: 10.5 h
Activity [17]: Non-Toxic
inhibition in vivo at 20 mg/kg (PC-9 [18]): 63.4%
Activity (PC-9 [19]): Active
Activity [20]: Non-Toxic
Activity [21]: Non-Toxic
Activity [22]: Non-Toxic
Activity [23]: Non-Toxic
Activity [24]: Non-Toxic
Activity [25]: Non-Toxic
Activity [26]: Non-Toxic
Activity [27]: Non-Toxic
Activity [28]: 1.682 U/L
Activity [29]: 17.83 µmol/L
Activity [30]: 6.434 µmol/L
Activity [31]: 185.73 U/L
Activity [32]: 2.53 µmol/L
Activity [33]: 19.63 mmol/L
Activity [34]: 44.454 µmol/L
Activity [35]: 43.302 U/L
Activity [36]: 159.506 U/L
Activity [37]: 16.068 µmol/L
Activity [38]: 3.062 µmol/L
Activity [39]: 30.848 µmol/L
Activity [40]: Non-Toxic
